{"source": "patent US7972831B2", "about": "“Lipases from thermophilic anaerobes” (Novozymes A/S, priority 2004, dated 2011)", "key": {"lipase of SEQ ID NO: 2": {"test_system": "lipase of SEQ ID NO: 2", "experiment": "Positional specificity towards monoglycerides", "type": "biochemical, Thermoanaerobacter thermohydrosulfuricus"}, "lipase": {"test_system": "lipase", "experiment": "Effect of detergent ingredients on lipase activity", "type": "biochemical", "details": "1.5 hours at 30° C., up to 10% by weight of compound", "procedure": "The activity of the lipase was tested after incubation for 1.5 hours at 30° C. with up to 10% by weight of various compounds."}, "[1]": {"experiment": "Effect of pH on lipase activity", "type": "biochemical"}, "[2]": {"experiment": "Specific activity of purified lipase", "type": "biochemical, Thermoanaerobacter thermohydrosulfuricus", "details": "after three-step purification", "procedure": "The lipase solution obtained after hydrophobic interaction chromatography was loaded on a hydroxilapatite column used as a second purification step. The lipase was eluted at the approximate mid-point of the sodium phosphate buffer gradient (220 to 250 mM range). The active fractions were further subjected to gel filtration column. […] The enzyme activity was present in the second major peak. The lipase was purified approximately 133.5-fold over the crude extract with a 10.2% yield. The specific activity of the purified lipase was 12.3 U/mg."}}, "data": [{"molecule": "monopalmitoyl glycerols", "values": [{"measurement": "hydrolysis of 1-positional ester bond lower in comparison with 2-positional ester bond", "setting": "lipase of SEQ ID NO: 2", "result": "less than 2 fold"}]}, {"molecule": "CCCCCCCC/C=C\\CCCCCCCC(=O)OCCOCC(OCCO)C1OCC(OCCO)C1OCCO", "note": "(stereo not drawn) [Tween-80]", "values": [{"measurement": "effect on activity after incubation", "setting": "lipase", "result": "decreased the activity"}]}, {"molecule": "Triton X-100", "values": [{"measurement": "effect on activity after incubation", "setting": "lipase", "result": "decreased the activity"}]}, {"molecule": "lipase of SEQ ID NO: 4: polypeptide having lipase activity from Caldanaerobacter subterraneus subsp. tengcongensis DSM 15242 (protein, listed as Thermoanaerobacter tencongensis) VQKAVEFTYNRKTLRGMLHLPEGVSEKVPMVVMFHGFTGNKVESHFIFVKMSRALEKVGIGSVRFDFYGSGESDGDFSEMTFSGELEDARQILDFVKRQPTTDVERIGLLGLSMGGAIAGIIARERKEDVKALVLWAPAFNMPELIMGEGARQYGAIMESLGYVDIGGLKLDRAFVEDIAKFNIFELSRGYEGKVLIVHGTNDEAVEYRISDRILQEVYGDNAFRVTIEGADHTFKNLEWERKAIEESVKFFERELKG", "values": [{"measurement": "activity at pH 6.5-9.0", "setting": "[1]", "result": "> 60", "unit": "%"}]}, {"molecule": "lipase of SEQ ID NO: 2: polypeptide having lipase activity from Thermoanaerobacter thermohydrosulfuricus DSM 7021 and T. brockii subsp. brockii DSM 1457 (protein, listed as Thermoanaerobacter thermohydrosulfuricus) MQKAVEITYNGKTLRGMMHLPDDVKGKVPMVIMFHGFTGNKVESHFIFVKMSRALEKVGIGSVRFDFYGSGESDGDFSEMTFSSELEDARQILKFVKEQPTTDPERIGLLGLSMGGAIAGIVAREYKDEIKALVLWAPAFNMPELIMNESVKQYGAIMEQLGFVDIGGHKLSKDFVEDISKLNIFELSKGYDKKVLIVHGTNDEAVEYKVSDRILKEVYGDNATRVTIENADHTFKSLEWEKKAIEESVEFFKKELLKG", "values": [{"measurement": "specific activity of the purified lipase", "setting": "[2]", "result": 12.3, "unit": "U/mg"}, {"measurement": "activity at pH 6.5-9.0", "setting": "[1]", "result": "> 80", "unit": "%"}]}]}
